Laboratory results reported in patent US20180037923A1, “SELECTIVE DETECTION OF LACTIC ACID AND/OR ACETIC ACID BACTERIA OR OF FUNGI” (priority 2015, published 2018).
“And” between values parts separate entries of the source, which are not always exact repeats. Equal values may be shown once.

Legend:
[1] = system: Sacch. Diastaticus IFBM; assay: Agar plate count after contact with antifungal; assay type: cell-based, Saccharomyces diastaticus; conditions: 400 mg/L; count at contact time 0 h 2.10^5 CFU/mL
From the text: The word “bactericide” refers to a treatment having the effect of reducing a bacterial population by at least three decimal logarithms of colony forming units/ml on an agar plate count of a sample after treatment.
The toxicity results on yeasts and on bacteria are presented in the table below displaying the duration of exposure of the fungal flora to molecule A1 and the associated fluorescence measurement: yeasts lysis after exposure to the antifungal was confirmed by microscopic examination and methylene blue staining.
The words “contact time” refer to below, the time of exposure of the microorganisms to the fungicidal product, here molecule A1.
Below: “No CFU” is the abbreviation for “No Colony forming unit on agar plate count”.
The toxicity results on yeasts and on bacteria are presented in the table below displaying the duration of exposure of the fungal flora to the molecule A2 and are obtained by enumeration on MRS agar media.

[2] = system: Saccharomyces diastaticus; assay: Atp bioluminescence, simplified protocol, with plate count; conditions: Treated (4 h)

For `C[C@@H]1[C@H](O)[C@@H](C)/C=C/C=C/C=C/C=C/C=C/C=C/C=C/[C@H](O[C@@H]2O[C@H](C)[C@@H](O)[C@H](N)[C@@H]2O)C[C@@H]2O[C@](O)(C[C@@H](O)C[C@@H](O)[C@H](O)CC[C@@H](O)C[C@@H](O)CC(=O)O[C@H]1C)C[C@H](O)[C@H]2C(=O)O` [Molecule A1, Amphotericin B], the “Agar plate count contact time 4 h” value [1] was “No CFU”, the “total bioluminescence in duplicate with lysis agent” value ([2]; start 7.5.10^1 CFU/100 μL, untreated + extractant 1934 and 1241 RLU) was 482 RLU and the “luminescent backgroud noise in duplicate without lysis agent after luciferin/luciferase addition” value ([2]; start 7.5.10^1 CFU/100 μL, untreated background 34 and 34 RLU) was 457 RLU and 436 RLU. For the same molecule, the “total bioluminescence in duplicate with lysis agent” value ([2]; start 7.5.10^2 CFU/100 μL, untreated + extractant 16239 and 16707 RLU) was 4393 RLU, the “luminescent backgroud noise in duplicate without lysis agent after luciferin/luciferase addition” value ([2]; start 7.5.10^2 CFU/100 μL, untreated background 211 and 223 RLU) was 3803 RLU and 3837 RLU and the Concentration after treatment ([2]; untreated 7.5.10^1 CFU/100 μL) was 0 CFU/100 μL. For the same molecule, the Concentration after treatment ([2]; untreated 7.5.10^2 CFU/100 μL) was 0 CFU/100 μL.
